Active and inactive are the calls of the source. No cut-off for these calls is given here.
How the values were obtained:
RAW264.7 [1] = assay: Cytotoxicity against LPS-induced mouse RAW264.7 cells assessed as reduction in cell viability at 20 uM incubated for 24 hrs by MTT assay; type: toxicity, cell-based; settings: raw264.7, 24 h
RAW264.7 [2] = assay: Antiinflammatory activity in LPS-induced mouse RAW264.7 cells assessed as inhibition of NO production at 20 uM measured after 24 hrs by Griess reagent based assay; type: functional, cell-based
RAW264.7 [3] = assay: Antiinflammatory activity in LPS-induced mouse RAW264.7 cells assessed as inhibition of NLRP3 protein expression at 20 uM measured after 24 hrs by Western blot analysis; type: functional, cell-based
RAW264.7 [4] = assay: Antiinflammatory activity in LPS-induced mouse RAW264.7 cells assessed as inhibition of NO production measured after 24 hrs by Griess reagent based analysis; type: functional, cell-based; settings: dose 0.1-20 µM
RAW264.7 [5] = assay: Antiinflammatory activity in LPS-induced mouse RAW264.7 cells assessed as reduction in iNOS protein expression at 20 uM measured after 24 hrs by Western blot analysis; type: functional, cell-based

For COc1ccc([C@@H](C)[C@@H]2NC(=O)[C@@H](C(C)C)NC(=O)CNC(=O)[C@H](CCC(C)C)NC(=O)c3cccc(O)c3NC2=O)cc1, the Activity (RAW264.7 [1]) was “Non-Toxic” and the Activity (RAW264.7 [2]) was “Active”.
CC[C@@H](C)[C@H]1NC(=O)CNC(=O)[C@H](CC(C)C)NC(=O)c2cccc(O)c2NC(=O)[C@H]([C@H](C)c2ccc(OC)cc2)NC1=O was tested, and the Activity (RAW264.7 [1]) was “Non-Toxic” and the Activity (RAW264.7 [2]) was “Active”.
With CC[C@H](C)[C@H]1NC(=O)CNC(=O)[C@H](CCC(C)C)NC(=O)c2cccc(O)c2NC(=O)[C@H]([C@H](C)c2ccc(OC)cc2)NC1=O the Activity (RAW264.7 [1]) was “Non-Toxic” and the Activity (RAW264.7 [2]) was “Active”.
For COc1ccc([C@@H](C)[C@@H]2NC(=O)[C@@H](CC(C)C)NC(=O)CNC(=O)[C@H](CCC(C)C)NC(=O)c3cccc(O)c3NC2=O)cc1, the Activity (RAW264.7 [1]) was “Non-Toxic” and the Activity (RAW264.7 [2]) was “Active”.
With COc1ccc([C@@H](C)[C@@H]2NC(=O)[C@@H](CC(C)C)NC(=O)CNC(=O)[C@@H](Cc3ccccc3)NC(=O)c3cccc(O)c3NC2=O)cc1 the Activity (RAW264.7 [1]) was “Non-Toxic”, the Activity (RAW264.7 [2]) was “Active” and the Activity (RAW264.7 [3]) was “Active”. For the same compound, the Activity (RAW264.7 [4]) was “Dose-Dependent Effect” and the Activity (RAW264.7 [5]) was “Active”.
CC[C@H](C)[C@H]1NC(=O)CNC(=O)[C@H](Cc2ccccc2)NC(=O)c2cccc(O)c2NC(=O)[C@H]([C@H](C)c2ccc(OC)cc2)NC1=O was tested, and the Activity (RAW264.7 [1]) was “Non-Toxic” and the Activity (RAW264.7 [2]) was “Active”.
In the case of COc1ccc([C@@H](C)[C@@H]2NC(=O)[C@@H](C(C)C)NC(=O)CNC(=O)[C@H](Cc3ccccc3)NC(=O)c3cccc(O)c3NC2=O)cc1, the Activity (RAW264.7 [1]) is reported as “Non-Toxic” and the Activity (RAW264.7 [2]) is reported as “Active”.
